Measurements reported in patent US4804749A, “20-O-Acyl-19,20-enolmacrolide antibiotic derivatives” (Toyo Jozo Co., Ltd., priority 1986, dated 1989).
Values after ≈ are worked out from the molar mass of the structure shown.

Key:
[1] = test system: S. aureus, 209P; test: MIC against S. aureus, 209P; type: cell-based; settings: Staphylococcus aureus
Text: (§1) Antibacterial activities of certain compounds (I) of this invention and corresponding 19-formylmacrolide antibiotics as well as their levels in blood and therapeutic effects for infectious diseases upon their oral administration are compared in Table 2.
MIC (μg/ml): S. aureus, 209P

[2] = Antibiotics levels in blood upon oral administration at 100 mg/kg to mice (by the paper disk method); type: in vivo; settings: mouse, ND: Below detectable limit; for Cmax: read-out: Antibiotics levels in blood upon oral administration: Peak value
Method: as §1
Antibiotics levels in blood
upon oral administration at
100 mg/kg to mice (by the paper
disk method) (μg · h/ml)

[3] = test system: S. pyogenes, S-23; test: Treatment results of infectious diseases of mice by oral administration; type: in vivo; settings: Streptococcus pyogenes, S23; mice infected with S. pyogenes S-23, oral administration
Text: as §1
infectious diseases of mice

[4] = test system: S. pyogenes, S-23; test: MIC against infective microorganism S. pyogenes, S-23; type: cell-based; settings: Streptococcus pyogenes, S23
Text: as §1

Structure (SMILES)	MIC [1] [µg/mL]	AUC [2] [ng·h/mL]	Cmax [2] [ng/mL]	ED50 [3] [mg/kg]	MIC [4] [µg/mL]
CCC(=O)OC1CC(=O)OC(CC)C(COC2OC(C)CC(OC)C2OC)C=C(C)C=CC(=O)C(C)CC(CC=O)C(OC2OC(C)C(O)C(N(C)C)C2O)C1C (stereo not drawn) [Example 2a, 3O--Propionyl-4"-deoxydesmycosin, reference compound]	0.2 (≈ 0.246 µM)	1570	420	–	–
CCC(=O)OC=CC1CC(C)C(=O)C=CC(C)=CC(COC2OC(C)CC(OC)C2OC)C(CC)OC(=O)CC(OC(=O)CC)C(C)C1OC1OC(C)C(O)C(N(C)C)C1O (stereo not drawn) [Example 2b, 3,20-Di-O-propionyl-19, 20-enol-4"-deoxydesmycosin]	0.39 (≈ 0.449 µM)	2800	2630	–	–
CCC(=O)OC1CC(=O)OC(CC)C(COC2OC(C)C(O)C(OC)C2OC)C=C(C)C=CC(=O)C(C)CC(CC=O)C(OC2OC(C)CC(N(C)C)C2O)C1C (stereo not drawn) [Example 3a, 3O--Propionyl-4'deoxydesmycosin, reference compound]	0.2 (≈ 0.246 µM)	1790	430	> 200	0.05 (≈ 0.0616 µM)
CCC(=O)OC=CC1CC(C)C(=O)C=CC(C)=CC(COC2OC(C)C(O)C(OC)C2OC)C(CC)OC(=O)CC(OC(=O)CC)C(C)C1OC1OC(C)CC(N(C)C)C1O (stereo not drawn) [Example 3b, 3,20-Di-O-propionyl-19,20-enol-4'-deoxydesmycosin]	0.39 (≈ 0.449 µM)	4900	2710	59	0.2 (≈ 0.23 µM)
CCC(=O)OC1CC(=O)OC(CC)C(COC(=O)N(C)C)C=C(C)C=CC(=O)C(C)CC(CC=O)C(OC2OC(C)C(O)C(N(C)C)C2O)C1C (stereo not drawn) [Ia, 3O--Propionyl-23-O--dimethylcarbamoyl-OMT, reference compound]	0.2 (≈ 0.276 µM)	–	–	> 400	0.1 (≈ 0.138 µM)
CCC(=O)OC=CC1CC(C)C(=O)C=CC(C)=CC(COC(=O)N(C)C)C(CC)OC(=O)CC(OC(=O)CC)C(C)C1OC1OC(C)C(O)C(N(C)C)C1O (stereo not drawn) [Ib, 3,20-Di-O-propionyl-19,20-enol-23-O-dimethylcarbamoyl-OMT]	0.78 (≈ 0.999 µM)	6000	3000	100 to 200	0.78 (≈ 0.999 µM)
